# Results published in patent US20070093493A1, “Treatment of benign prostatic hypertrophy and lower urinary tract symptoms” (LILLY ICOS LLC, priority 2005, published 2007).
# Legend:
# Type in all cases: in vivo, human
# [1] = test system: men suffering from moderate to severe LUTS secondary to BPH; assay: randomized, double-blind, placebo-controlled, parallel-group, dose-escalation study, once a day dosing: efficacy in LUTS secondary to BPH
# Description: (§1) The efficacy and safety of Compound (I) administered once a day for LUTS secondary to BPH in male humans was tested. In particular, the efficacy and safety of Compound (I) dosed once a day was assessed in men suffering from moderate to severe LUTS secondary to BPH in a randomized, double-blind, placebo-controlled, parallel-group, dose-escalation study. Patients were treated with placebo for four weeks (single blind) to evaluate treatment compliance and establish baseline International Prostate Symptom Score (IPSS) and uroflowmetry values. After stratification by baseline IPSS (13-19, moderate LUTS; 20-35, severe LUTS), geographic region, and prior α-blocker therapy, 281 men were randomly assigned to two groups: (1) Compound (I) (5 mg for 6 weeks followed by dose escalation to 20 mg for 6 weeks) or (2) placebo (12 weeks). The primary efficacy end point was change in IPSS at 6 and 12 weeks. Secondary efficacy endpoints included changes in IPSS Quality of Life (QoL) index, BPH Impact Index (BII), uroflowmetry values, and a Global Assessment Question (LUTS GAQ) (Has the treatment you have been taking since your last visit improved your urinary symptoms?). Responses to Compound (I) 5 mg (6 weeks) or Compound (I) 5 mg followed by 20 mg (5/20 mg; 12 weeks total) were compared with placebo using ANCOVA (IPSS, BII, uroflowmetry values) and logistic linear regression (LUTS GAQ) models.
# [2] = test system: men suffering from moderate to severe LUTS secondary to BPH; assay: same clinical study: safety / tolerability of once a day dosing; details: dosed once a day, 5 mg then 20 mg
# Description: as §1
# [3] = test system: men with LUTS/BPH who were sexually active and also had erectile dysfunction; assay: same clinical study: erectile function (IIEF EF domain) in the subset with erectile dysfunction; details: for increase in International Index of Erectile Function (IIEF) EF domain score: LS Means, p<0.001
# Description: The efficacy and safety of Compound (I) administered once a day for LUTS secondary to BPH in male humans was tested. In particular, the efficacy and safety of Compound (I) dosed once a day was assessed in men suffering from moderate to severe LUTS secondary to BPH in a randomized, double-blind, placebo-controlled, parallel-group, dose-escalation study.
# as §1, with “Patients” for “The efficacy and safety of Compound (I) administered once a day for LUTS secondary to BPH in male humans was tested. In particular, the efficacy and safety of Compound (I) dosed once a day was assessed in men suffering from moderate to severe LUTS secondary to BPH in a randomized, double-blind, placebo-controlled, parallel-group, dose-escalation study. Patients”
# At 6 weeks (5 mg) and 12 weeks (5/20 mg) Compound (I) improved change from baseline scores for IPSS, IPSS QoL, BII, and LUTS GAQ compared with placebo. Peak flow rate (Qmax) changes were similar in placebo and Compound (I) treatment groups.
# [4] = at 6 weeks (5 mg) and 12 weeks (5/20 mg), once a day, men
smiles,measurement,setting,value
"CN1CC(=O)N2[C@H](c3ccc4c(c3)OCO4)c3[nH]c4ccccc4c3C[C@@H]2C1=O [Compound (I), (6R,12aR)-2,3,6,7,12,12a-hexahydro-2-methyl-6-(3,4-methylenedioxyphenyl)pyrazino[2′,1′:6:1]pyrido[3,4-b]indole-1,4-dione]",LUTS GAQ compared with placebo,[1]; [4],improved
same,change from baseline score for BII compared with placebo,[1]; [4],improved
same,change from baseline score for IPSS QoL compared with placebo,[1]; [4],improved
same,change from baseline score for IPSS compared with placebo,[1]; [4],improved
same,efficacy in the treatment of LUTS secondary to BPH,"[1]; dosed once a day, summary",statistically significant and clinically meaningful efficacy
same,Peak flow rate (Qmax) changes versus placebo,"[1]; uroflowmetry, placebo and Compound (I) treatment groups",similar
same,tolerability,[2],well tolerated
same,increase in International Index of Erectile Function (IIEF) EF domain score,"[3]; 5 mg once a day, 6 weeks, vs. 0.6 placebo",6.0
same,increase in International Index of Erectile Function (IIEF) EF domain score,"[3]; 5/20 mg once a day, 12 weeks total, vs. 1.4 placebo",7.7
same,erectile function in men with both LUTS and MED,"[3]; dosed once a day, summary",improved erectile function
